Data published in patent publication US20150031102A1, “METHODS AND COMPOSITIONS FOR ENHANCED PRODUCTION OF BUTANOL BY CLOSTRIDIA” (Butrolix LLC, priority 2012, published 2015).
“Also recorded” adds a separate entry of the source. Marks after values point to notes of the source that are not given here.

How the values were obtained:
C. acetobutylicum [1] = assay: Calculated optimum peptide treatment level (polynomial curve fitted to butanol concentration vs treatment level per culture transfer); format: cell-based, Clostridium acetobutylicum; conditions: for Calculated optimum peptide treatment level: first experiment using BP110517
Description: FIG. 20. Calculation of optimum peptide treatment level for transfer 13 of the first experiment that tested peptide BP110517 (SEQ ID NO:143) (see Table 1 for data). The four butanol concentration data points were graphed against the treatment levels and a polynomial curve was fitted to the graph.
The data from the sequential batch culture experiments treated with peptides BP110517 and BP1106213 were used to calculate optimum peptide treatment levels for enhanced butanol production by C. acetobutylicum. The calculation was made for each culture transfer using the butanol concentration results from control and experimental wells. The four data points for each culture transfer were graphed against the treatment levels, and a polynomial curve was fitted to the graph.
Then, the first derivative of the polynomial fitted to the data for each culture transfer was solved for “x”, which was the maximum point of the fitted polynomial curve (Table 46). The resulting peptide concentration value was assumed to be close to an optimum peptide treatment level that would result in enhanced butanol production.

C. acetobutylicum [2] = assay: Time course study of replicate 250 mL batch cultures (growth, butanol, residual glucose, yield, productivity); format: cell-based, Clostridium acetobutylicum; conditions: for Residual glucose / Butanol yield from glucose / Butanol productivity: 50 nM peptide; for Residual glucose: initial glucose 60 g/L, average ± SD of triplicate; for Butanol yield from glucose: starting glucose 60 g/L; for Butanol concentration: Treated, average and standard deviation of triplicate samples
Procedure: Subsequently, time-course studies were conducted using the optimum peptide treatment level that was determined by the sequential batch transfer experiments. Untreated and peptide-treated cultures were grown in triplicate 250 mL batches that were inoculated with […] of the ninth sequential transfer from 24-well culture plates. The 1/1000 ratio of inoculum to culture volume was the same as that used throughout the prior sequential batch transfer experiments, and the replicate time course batch cultures corresponded to the 10th sequential batch transfer. Samples were recovered from the triplicate control and experimental batches a regular time intervals up to 96 hours of culture. Optical density of the replicates was measured and culture supernatants were recovered following centrifugation and analyzed later for butanol and residual glucose concentrations. The analyses were used to calculate yield and productivity of the cultures.
Clostridium acetobutylicum strain ATCC 824 was used in all experiments and the growth medium used for sequential batch transfer, time course, and continuous culture experiments contained yeast extract, casamino acids, L-cysteine, L-asparagine, phosphate buffer, trace minerals, and 6% glucose. What are believed to be quorum-sensing peptides that were used in the experiments were chemically synthesized peptides SEQ ID NO: 143 (amino acid sequence: SYPGWSW) and SEQ ID NO: 144 (amino acid sequence: ILILISG). Routine growth of the bacteria as well as the sequential batch and time course experiments were conducted in a Form a Scientific Model 1029 anaerobic gas chamber at 32° C. Continuous cultures were performed at 32° C. using duplicate New Brunswick Scientific BioFlo 3000 apparati with a dilution rate of 0.01 volume per hour, 75 rpm agitation, and nitrogen gas sparging. Optical density of culture samples was measured at 600 nm in a Beckman DU 600 series spectrophotometer and glucose was analyzed using a YSI Model 2700 Select Biochemistry Analyzer with internal glucose calibration. Butanol concentrations were determined by measuring experimental and standard samples using a Varian Saturn 3 Gas Chromatograph/Mass Spectrometer and calculating butanol concentrations using standard curves.
(§1) The study was started by inoculating triplicate 250 mL batches of untreated and peptide-treated medium with 250 μL of the corresponding ninth sequential transfer from 24-well culture plates. Therefore, the replicate time course batch cultures corresponded to the 10th sequential batch transfer. Samples were recovered from the triplicate control and experimental batches at regular time intervals up to 96 hours of culture for measurement of optical density at 600 nm and analysis of butanol and residual glucose concentrations.
as §1, with “Like the previous time course experiment, this” for “The”, “As before, samples” for “Therefore, the replicate time course batch cultures corresponded to the 10th sequential batch transfer. Samples”, “density” for “density at 600 nm”

SYPGWSW [peptide SEQ ID NO: 143] was tested, and the “Calculated Optimum Peptide Level, Average” value (C. acetobutylicum [1]; average over culture transfers, Expt. 1) was 48.5 ± 9.9 nM, the “Calculated Optimum Peptide Level, Average” value (C. acetobutylicum [1]; average over culture transfers, Expt. 2) was 43.9 ± 31.6 nM and the “Average optimum peptide treatment level” value (C. acetobutylicum [1]; average over culture transfers, both experiments for BP110517, single non-inhibitory experiment for BP1106213, fairly large standard deviations) was “mid to high 40”. The “Calculated optimum peptide treatment level” value (C. acetobutylicum [1]; transfer 4) was 38.7 nM, the “Calculated optimum peptide treatment level” value (C. acetobutylicum [1]; transfer 22) was 62.9 nM and the “Calculated Optimum Peptide Level” value (C. acetobutylicum [1]; transfer 4, Expt. 1) was 38.7 nM. For the same substance, the “Calculated Optimum Peptide Level” value (C. acetobutylicum [1]; transfer 7, Expt. 1) was 37.3 nM, the “Calculated Optimum Peptide Level” value (C. acetobutylicum [1]; transfer 7, Expt. 2) was 100 nM and the “Calculated Optimum Peptide Level” value (C. acetobutylicum [1]; transfer 10, Expt. 1) was 56.6 nM. The “Calculated Optimum Peptide Level” value (C. acetobutylicum [1]; transfer 10, Expt. 2) was 35.6 nM, the “Calculated Optimum Peptide Level” value (C. acetobutylicum [1]; transfer 13, Expt. 1) was 40.4 nM and the “Calculated Optimum Peptide Level” value (C. acetobutylicum [1]; transfer 13, Expt. 2) was 28.6 nM. For the same substance, the “Calculated Optimum Peptide Level” value (C. acetobutylicum [1]; transfer 16, Expt. 1) was 51.2 nM, the “Calculated Optimum Peptide Level” value (C. acetobutylicum [1]; transfer 16, Expt. 2) was 26.8 nM and the “Calculated Optimum Peptide Level” value (C. acetobutylicum [1]; transfer 19, Expt. 1) was 52.5 nM. The “Calculated Optimum Peptide Level” value (C. acetobutylicum [1]; transfer 19, Expt. 2) was 28.3 nM, the “Calculated Optimum Peptide Level” value (C. acetobutylicum [1]; transfer 22, Expt. 1) was 62.9 nM and the Residual glucose (C. acetobutylicum [2]; 0 hours) was 53.7 ± 0.9 g/L. The “Butanol yield from glucose” value (C. acetobutylicum [2]; 0 hours) was 0.001 g butanol/g glucose, the Residual glucose (C. acetobutylicum [2]; 6 hours) was 56.2 ± 0.4 g/L and the “Butanol yield from glucose” value (C. acetobutylicum [2]; 6 hours) was 0.001 g butanol/g glucose. For the same substance, the Residual glucose (C. acetobutylicum [2]; 12 hours) was 56.1 ± 0.7 g/L, the “Butanol yield from glucose” value (C. acetobutylicum [2]; 12 hours) was 0.001 g butanol/g glucose and the Residual glucose (C. acetobutylicum [2]; 18 hours) was 54.7 ± 0.2^c g/L. For the same substance, the “Butanol yield from glucose” value (C. acetobutylicum [2]; 18 hours) was 0.002 g butanol/g glucose, the Residual glucose (C. acetobutylicum [2]; 21 hours) was 52.0 ± 0.3 g/L and the “Butanol yield from glucose” value (C. acetobutylicum [2]; 21 hours) was 0.002 g butanol/g glucose. The Residual glucose (C. acetobutylicum [2]; 24 hours) was 49.7 ± 0.5^c g/L, the “Butanol yield from glucose” value (C. acetobutylicum [2]; 24 hours) was 0.003 g butanol/g glucose and the Residual glucose (C. acetobutylicum [2]; 27 hours) was 46.4 ± 0.4 g/L. The “Butanol yield from glucose” value (C. acetobutylicum [2]; 27 hours) was 0.007 g butanol/g glucose, the Residual glucose (C. acetobutylicum [2]; 30 hours) was 46.6 ± 0.4 g/L and the “Butanol yield from glucose” value (C. acetobutylicum [2]; 30 hours) was 0.011 g butanol/g glucose. The Residual glucose (C. acetobutylicum [2]; 33 hours) was 45.9 ± 0.6 g/L, the “Butanol yield from glucose” value (C. acetobutylicum [2]; 33 hours) was 0.032 g butanol/g glucose and the Residual glucose (C. acetobutylicum [2]; 36 hours) was 46.2 ± 0.5 g/L. The “Butanol yield from glucose” value (C. acetobutylicum [2]; 36 hours) was 0.032 g butanol/g glucose, the Residual glucose (C. acetobutylicum [2]; 48 hours) was 45.7 ± 0.3 g/L and the “Butanol yield from glucose” value (C. acetobutylicum [2]; 48 hours) was 0.033 g butanol/g glucose. For the same substance, the Residual glucose (C. acetobutylicum [2]; 72 hours) was 45.8 ± 0.1 g/L, the “Butanol yield from glucose” value (C. acetobutylicum [2]; 72 hours) was 0.028 g butanol/g glucose and the Residual glucose (C. acetobutylicum [2]; 96 hours) was 45.8 ± 0.2^c g/L. The “Butanol yield from glucose” value (C. acetobutylicum [2]; 96 hours) was 0.029 g butanol/g glucose, the Butanol productivity (C. acetobutylicum [2]; sampling interval ending at 6 hours) was 0.000 g butanol/L-h and the Butanol productivity (C. acetobutylicum [2]; sampling interval ending at 12 hours) was 0.000 g butanol/L-h. It also gave a Butanol productivity (C. acetobutylicum [2]; sampling interval ending at 18 hours) of 0.010 g butanol/L-h, a Butanol productivity (C. acetobutylicum [2]; sampling interval ending at 21 hours) of 0.004 g butanol/L-h and a Butanol productivity (C. acetobutylicum [2]; sampling interval ending at 24 hours) of 0.024 g butanol/L-h. For the same substance, the Butanol productivity (C. acetobutylicum [2]; sampling interval ending at 27 hours) was 0.074 g butanol/L-h, the Butanol productivity (C. acetobutylicum [2]; sampling interval ending at 30 hours) was 0.069 g butanol/L-h and the Butanol productivity (C. acetobutylicum [2]; sampling interval ending at 33 hours) was 0.377 g butanol/L-h. It also gave a Butanol productivity (C. acetobutylicum [2]; sampling interval ending at 36 hours) of 0.002 g butanol/L-h, a Butanol productivity (C. acetobutylicum [2]; sampling interval ending at 48 hours) of 0.002 g butanol/L-h and a Butanol productivity (C. acetobutylicum [2]; sampling interval ending at 72 hours) of −0.011 g butanol/L-h. For the same substance, the Butanol productivity (C. acetobutylicum [2]; sampling interval ending at 96 hours) was 0.002 g butanol/L-h, the “Butanol concentration relative to untreated cultures” value (C. acetobutylicum [2]; 50 nM, 33 hours) was “more than double” and the “Yield of butanol relative to untreated cultures” value (C. acetobutylicum [2]; 50 nM, 33 hours) was “more than double”. The “Butanol yield increase compared to untreated culture” value (C. acetobutylicum [2]; 50 nM, end of the study (96 hours of growth)) was 53%, the “Butanol productivity relative to untreated cultures” value (C. acetobutylicum [2]; 50 nM, peak butanol formation stage (between 24 and 33 hours), listed as BP110517) was “nearly doubled; also recorded: more than doubled” and the “Increase in butanol yield” value (C. acetobutylicum [2]; BP110517, batch cultures (summary of findings)) was “more than 50%”. For the same substance, the Butanol concentration (C. acetobutylicum [2]; 50 nM, 0 hours) was 0.06 ± 0.00 g/L, the Butanol concentration (C. acetobutylicum [2]; 50 nM, 6 hours) was 0.06 ± 0.00 g/L and the Butanol concentration (C. acetobutylicum [2]; 50 nM, 12 hours) was 0.06 ± 0.00 g/L. For the same substance, the Butanol concentration (C. acetobutylicum [2]; 50 nM, 18 hours) was 0.09 ± 0.00^c g/L, the Butanol concentration (C. acetobutylicum [2]; 50 nM, 21 hours) was 0.10 ± 0.00 g/L and the Butanol concentration (C. acetobutylicum [2]; 50 nM, 24 hours) was 0.17 ± 0.01^c g/L. For the same substance, the Butanol concentration (C. acetobutylicum [2]; 50 nM, 27 hours) was 0.39 ± 0.03^c g/L, the Butanol concentration (C. acetobutylicum [2]; 50 nM, 30 hours) was 0.60 ± 0.03^c g/L and the Butanol concentration (C. acetobutylicum [2]; 50 nM, 33 hours) was 1.73 ± 0.27^c g/L. The Butanol concentration (C. acetobutylicum [2]; 50 nM, 36 hours) was 1.74 ± 0.16 g/L, the Butanol concentration (C. acetobutylicum [2]; 50 nM, 48 hours) was 1.76 ± 0.26^c g/L and the Butanol concentration (C. acetobutylicum [2]; 50 nM, 72 hours) was 1.48 ± 0.29 g/L. The Butanol concentration (C. acetobutylicum [2]; 50 nM, 96 hours) was 1.53 ± 0.29 g/L.
